Measured values taken from patent US6384045B1, “Tricyclic and tetracyclic pyrones” (Kansas State University Research Foundation, priority 1997, dated 2002).
“Also recorded” adds a separate entry of the source.

Experiments:
[1] = system: MCF-7 human breast cancer cells; assay: Growth of MCF-7 human breast cancer cells; format: cell-based
[2] = system: L1210 lymphoblastic leukemia cells; assay: Inhibition of DNA synthesis (3H-thymidine incorporation) in L1210 cells in vitro; format: cell-based, Murine; settings: for IC50: read-out: concentration that inhibits DNA synthesis by 50% (IC50)
Experimental: FIG. 1 illustrates a comparison of the effects of four new tricyclic pyrone derivatives and CPT on DNA synthesis in L1210 cells in vitro. About 2.53×10^6 cells suspended in 0.5 ml of RPMI 1640 medium were incubated at 37° C. for 90 minutes in the presence or absence (control) of the indicated concentrations of drugs. The cells were then pulse-labeled for an additional 30 minutes to determine the rate of ^3H-thymidine incorporation into DNA. DNA synthesis in vehicle-treated control cells was 43,956±4,569 cpm (100±11%). The blank value (1,241±99 cpm) for cells pulse-labeled for 0 minutes with 1 μCi of ^3H-thymidine has been subtracted from the results. Bars: means±SD (n=3).
(§1) All solutions of tricyclic pyrone analogs were dissolved and diluted in 100% ethanol (ETOH), whereas CPT (Sigma Chemical Co., St. Louis, Mo.) solutions were prepared in 100% dimethyl sulfoxide (DMSO). Murine L1210 lymphoblastic leukemia cells, obtained from the American Type Culture Collection (Rockville, Md.), were maintained in continuous exponential growth by twice-a-week passage in RPMI 1640 medium supplemented with 7.5% fortified bovine calf serum (HyClone Laboratories, Inc., Logan, Utah). The cultures were incubated at 37° C. in a humidified atmosphere containing 5% CO2. All drugs were supplemented to the culture medium in 1- or 2 μl aliquots. The concentration of vehicle in the final incubation volume never exceeded 0.2-0.4%. […] Control cells incubated in the absence of drugs were similarly treated with vehicle only and, in every experiment, all incubates received the same volume of solvent.
For DNA synthesis, L1210 cells were resuspended in fresh serum-free RPMI 1640 medium at a density of about 2.5×10^6 cells/0.5 ml. The cells were incubated at 37° C. for 90 min in the presence or absence of drugs and then pulse-labeled for an additional 30 min with 1 μCi of [methyl-^3H]thymidine (51 Ci/mmol; Amersham Corp., Arlington Heights, Ill.). The incubations were terminated by the addition of 0.5 ml of 10% trichloroacetic acid (TCA). After holding on ice for 15 min, the acid-insoluble material was recovered over Whatman GF/A glass microfibre filters and washed thrice with 2 ml of 5% TCA and twice with 2 ml of 100% EtOH. After drying the filters, the radioactivity bound to the acid-precipitable material was determined by liquid scintillation counting in 10 ml of Bio-Safe NA (Research Products International Corp., Mount Prospect, Ill.).

[3] = system: T1, liver and intestinal microsomal ACAT; assay: Inhibition of liver and intestinal microsomal ACAT activity; format: biochemical; settings: using literature IC50 of pyripyropene as standard
T1 construct: other: 100 μM; other: 44 nM; other: 50 μM
Experimental: . Microsomes were prepared from liver and intestinal mucosal scrapings by sequential centrifugation and in vitro ACAT activity assays were done according to the method of Billheimer (Billheimer, J. T. (1985), “Cholesterol acyltransferase,” In Methods in Enzymology 111:286-293). Briefly, 100 μg microsomal protein, 22 μg BSA, and 52 nmol cholesterol and the synthesized drug in 5 μL DMSO were preincubated for 30 minutes at 37° C. in a phosphate buffer (200 μL total volume). After 30 minutes, 1 nmol [^14C]oleoyl-CoA was added as substrate and incubated for an additional 20 minutes. The reaction was stopped with the addition of 1 mL ethanol and lipids were extracted with hexane. Cholesteryl [^14C]oleate formation was quantified by thin-layer chromatography and data are expressed as percent inhibition of ACAT activity (pmol/μg protein per minute) compared to a control sample incubated with no drug. All samples were run in duplicate. […]

[4] = system: EMT6 mammary carcinoma cells; assay: Growth of EMT6 mammary carcinoma cells; format: cell-based
[5] = system: L1210 lymphoblastic leukemia cells; assay: Inhibition of L1210 tumor cell growth in vitro (Coulter counter); format: cell-based, Murine; settings: for reduction of L1210 cell numbers vs control: 6.25 μM; for inhibition at 50 µM: 3 and 4 days in culture, read-out: inhibition of L1210 cell growth (% reduction of control cell numbers)
Experimental: Cells were plated at an initial density of 1×10^4 cells/0.5 ml/well in RPMI 1640 medium, containing 7.5% fortified bovine calf serum, and grown at 37° C. for 4 days in a humidified incubator in 5% CO2 in air. Cells were incubated in the presence or absence (^•, control) of 50 μM 3A (▪), 2D & 2E (□),3D & 3E (▴), 2B & 2C (Δ) 2A (♦), 3B & 3C (⋄), or 10 μM CPT (∘) and their density was monitored in triplicate every 24 h using a Coulter counter. Cells numbers are plotted on a logarithmic scale.
as §1
For tumor cell growth, L1210 cells were resuspended in fresh serum-containing RPMI 1640 medium, plated at an initial density of 1×10^4 cells/0.5 ml, and incubated in 48-well Costar cell culture plates (Costar, Cambridge, Mass.). Cells were grown for 4 days in the presence or absence of drugs and their density was monitored every 24 h using a Coulter counter (Coulter Electronics, Ltd., Luton Beds, England). Data of all in vitro experiments were analyzed using Student's t-test with the level of significance set at P<0.05.

[6] = biological target: T2, tubulin protein from bovine brain (Bos taurus, UniProt P81947+Q6B856); assay: Polymerization of pure tubulin in a cell-free system; format: biochemical; settings: 25 μM, 35° C., 20 min, 2.5 mg/ml tubulin
T2 construct: tubulin protein from bovine brain (2.5 mg/ml); purchased Cytoskeleton (Denver, Colo.); host or cells: bovine brain
T2 sequence (P81947 whole entry): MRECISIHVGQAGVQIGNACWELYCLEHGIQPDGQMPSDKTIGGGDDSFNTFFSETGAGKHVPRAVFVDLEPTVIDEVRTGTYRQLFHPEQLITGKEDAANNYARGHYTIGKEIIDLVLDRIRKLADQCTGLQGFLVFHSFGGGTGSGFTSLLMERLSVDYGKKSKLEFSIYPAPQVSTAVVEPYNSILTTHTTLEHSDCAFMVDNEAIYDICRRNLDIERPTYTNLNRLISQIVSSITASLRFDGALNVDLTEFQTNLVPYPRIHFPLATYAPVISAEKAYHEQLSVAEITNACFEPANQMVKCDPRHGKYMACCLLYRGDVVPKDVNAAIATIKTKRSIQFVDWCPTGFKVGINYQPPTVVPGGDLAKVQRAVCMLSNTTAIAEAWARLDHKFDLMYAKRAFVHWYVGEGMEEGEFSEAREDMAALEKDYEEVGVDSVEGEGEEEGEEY
T2 sequence (Q6B856 whole entry): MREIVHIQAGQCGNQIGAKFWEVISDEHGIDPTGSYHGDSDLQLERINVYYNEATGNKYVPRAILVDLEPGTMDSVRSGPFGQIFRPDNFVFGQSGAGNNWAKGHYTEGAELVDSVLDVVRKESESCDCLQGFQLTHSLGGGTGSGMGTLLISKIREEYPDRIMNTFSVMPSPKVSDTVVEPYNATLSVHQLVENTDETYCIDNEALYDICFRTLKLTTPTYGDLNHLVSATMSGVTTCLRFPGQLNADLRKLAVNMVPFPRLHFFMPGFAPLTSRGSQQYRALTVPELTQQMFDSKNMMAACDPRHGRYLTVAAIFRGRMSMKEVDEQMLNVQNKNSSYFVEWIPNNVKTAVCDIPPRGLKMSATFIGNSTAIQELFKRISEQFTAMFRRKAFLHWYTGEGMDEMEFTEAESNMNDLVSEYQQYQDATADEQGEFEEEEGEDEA
Experimental: In a final volume of 200 μl, a solution of 2.5 mg/ml tubulin protein from bovine brain, 80 mM PIPES buffer, pH 6.8, 1 mM MgCl2, 1 mM EGTA, 1 mM GTP, and 10% glycerol was incubated at 35° C. for 20 minutes in the presence or absence (control) of 25 μM of compound 2A. The absorbance of the solution at OD340 nm was measured to determine the rate of tubulin polymerization.
Tubulin is a labile protein, which is unstable below 80 mM PIPES, should not be exposed to pH values less than 6.8 or greater than 7.0, and will not polymerize in the presence of Ca^2+. GTP and Mg^2+ are necessary for tubulin nativity and glycerol stabilizes tubulin and lowers the initial concentration required to initiate polymerization.
The ability of 2A to alter the polymerization of pure tubulin in a cell-free system in vitro was analyzed using the assay kit purchased from Cytoskeleton (Denver, Colo.). The polymerization reaction contained, in a final volume of 200 μl, tubulin protein from bovine brain (2.5 mg/ml), 80 mM PIPES buffer, pH 6.8, 1 mM MgCl2, 1 mM EGTA, 1 mM GTP and 10% glycerol. […] Samples were incubated at 35° C. in quartz microcells and the rate of tubulin polymerization was followed over 20 min by measuring the increased absorbance of the solution at OD340nm, using a Shimadzu UV-160 spectrophotometer equipped with dual-beam optics and a thermostatically-controlled cell holder. […]

[7] = biological target: acetylcholinesterase (AChE) (UniProt O42275); format: biochemical, electric eel; fetal bovine serum; settings: read-out: AChE inhibition constant Ki ± std. error; 30° C., pH 8.0
acetylcholinesterase (AChE), sequence (O42275 whole entry): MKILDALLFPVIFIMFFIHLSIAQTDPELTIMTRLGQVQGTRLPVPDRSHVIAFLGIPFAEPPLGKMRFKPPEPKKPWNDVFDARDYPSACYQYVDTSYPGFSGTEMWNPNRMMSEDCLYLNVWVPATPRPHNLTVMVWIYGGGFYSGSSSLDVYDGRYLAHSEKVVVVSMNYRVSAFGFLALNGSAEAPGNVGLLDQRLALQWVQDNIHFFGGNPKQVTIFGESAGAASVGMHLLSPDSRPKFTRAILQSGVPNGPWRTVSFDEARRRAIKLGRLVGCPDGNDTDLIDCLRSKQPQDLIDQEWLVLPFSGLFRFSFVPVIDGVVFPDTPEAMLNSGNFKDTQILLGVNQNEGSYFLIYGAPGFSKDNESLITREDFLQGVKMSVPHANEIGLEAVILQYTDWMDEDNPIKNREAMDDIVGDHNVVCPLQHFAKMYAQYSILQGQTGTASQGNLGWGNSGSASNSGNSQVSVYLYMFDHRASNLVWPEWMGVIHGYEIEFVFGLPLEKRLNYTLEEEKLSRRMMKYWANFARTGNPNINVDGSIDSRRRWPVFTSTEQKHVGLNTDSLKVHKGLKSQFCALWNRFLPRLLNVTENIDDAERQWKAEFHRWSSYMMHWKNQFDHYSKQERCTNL
Experimental: Acetylcholinesterase Assay and Inhibition Kinetics: Tricyclic pyrones of this invention were tested for inhibition of AChE. […] Reactions were carried out at 30° C. in 0.1 M sodium phosphate buffer at pH 8.0 in the presence of […] and 3.3×10^−4 M 3-carboxy-4-nitrophenyl disulfide. Aliquots of incubating mixtures containing enzyme alone, or enzyme in the presence of each carbamate, were withdrawn at selected time intervals and assayed for enzyme activity in order to obtain kinetic data. From the kinetic data, inhibition and bimolecular rate constants were calculated by the equation: [formula]
in which kapp is the pseudo-first-order rate constant.

[8] = system: L1210 leukemic cells; assay: Inhibition of other macromolecule synthesis (RNA and protein synthesis); format: cell-based
[9] = Mus musculus, L1210, 50 μM, 90 min + 30 min pulse

For O=c1oc(-c2cccnc2)cc2c1C=C1CCCCC1O2 (stereo not shown) [Compound 2A, 3-(3-pyridyl)-1H-5a,6,7,8,9-pentahydro-1-oxopyrano[4,3-b][1]benzopyran], the “inhibition of growth of MCF-7 human breast cancer cells” value [1] was “greater inhibitory effect than tricyclic pyrone 3A”, the inhibition at 50 µM [2, 9] was 79 to 91% and the IC50 ([2]; Mus musculus, L1210 cells, 2 h) was ~8.5 µM. The IC50 [3] was 50 µM, the “inhibition of growth of EMT6 mammary carcinoma cells” value [4] was “greater inhibitory effect than tricyclic pyrone 3A” and the “inhibition of tumor cell growth” value ([5]; 1.56 μM, after 24 h) was “no effect”. The “times less potent than CPT at inhibiting leukemic cell growth” value ([5]; 6.25 μM 2A mimics 0.78 μM CPT over 4 days) was “about 8 times”, the “reduction of L1210 cell numbers vs control” value (shortened to “reduction”) ([5]; 1 day) was 28% and the “reduction” value ([5]; 2 days) was 74%. For the same compound, the “reduction” value ([5]; 3 days) was 90%, the “reduction” value ([5]; 4 days) was 94% and the IC50 ([5]; Mus musculus, L1210, 24 h, 1 day) was 11 µM. The IC50 ([5]; Mus musculus, L1210, 48 h, 2 days) was 2 µM, the IC50 ([5]; Mus musculus, L1210, 72 h, 3 days) was 1.1 µM and the IC50 ([5]; Mus musculus, L1210, 96 h, 4 days) was 1.1 µM. For the same compound, the inhibition at 1.56 µM ([5]; Mus musculus, L1210, 1.56 μM, after 96 h) was 83%, the inhibition at 50 µM ([5]; Mus musculus, L1210) was 91 to 100% and the “inhibition of tubulin polymerization (OD340nm)” value [6] was “completely inhibit polymerization of pure tubulin; also recorded: completely inhibits tubulin polymerization; also recorded: no significant MT polymerization can be detected”.
COc1ccc(-c2cc3c(c(=O)o2)C=C2CCCCC2O3)cc1OC (stereo not shown) [Compound 3A, 3-(3,4-dimethoxyphenyl)-1H-5a,6,7,8,9-pentahydro-1-oxopyrano[4,3-b][1]benzopyran] showed a Ki [7] of 23 ± 3.5 µM, an IC50 ([2]; Mus musculus, L1210, 2 h) of ~8.5 µM and an inhibition at 25 µM ([2]; Mus musculus, L1210, 25 μM, 90 min + 30 min pulse) of 62%. For the same compound, the inhibition at 50 µM [2, 9] was 79 to 91%, the IC50 [3] was 63 µM and the “inhibition of macromolecule synthesis (RNA and protein synthesis)” value [8] was “more potent inhibitor of macromolecule synthesis than the 3-pyridyl substituted tricyclic pyrone 2A”. For the same compound, the inhibition at 50 µM ([5]; Mus musculus, L1210) was 91 to 100%.
In the case of O=c1cc(O)cc(-c2cccnc2)o1 [Compound 5B, 4-hydroxy-6-(3-pyridyl)-2-pyrone], the “inhibition of DNA synthesis in L1210 cells” value ([2]; 25 μM, 90 min + 30 min pulse) is reported as “no significant effects”, the “inhibition of DNA synthesis in L1210 cells” value ([2]; 50 μM, 90 min + 30 min pulse, 50 µM) is reported as “no effect; also recorded: ineffective; also recorded: fail to inhibit DNA synthesis” and the melting point is reported as 187 to 189 °C.
